Laboratory results reported in patent publication US20160115540A1, “PRODRUGS AND DRUGS” (Biogen MA Inc., priority 2013, published 2016).
Structures can show the parent of a compound that is named as a salt.

Test system: brain
Experiment: Transcriptional profiling, multi-dosing regimen, naïve mice: brain
Assay type: in vivo
Conditions: for FC: BRAIN_HEMI, 100DMF-vs-Veh; for FC, Depp (1433836_PM_a_at): BrainHemi, multi-dosing; for Number of differentially expressed genes identified: Brain Hemi: Table 13: Naïve, Single Dose (so in the source), 12 h after last dosing
Protocol: In vivo, DMF is rapidly metabolized to monomethyl fumarate (MMF). […] Animals were exposed to CO2 and whole blood collected via cardiac puncture. Two 100 μl aliquots of whole blood were collected in 1.5 mL microcentrifuge tubes and snap frozen in liquid nitrogen. Peripheral (liver, spleen, kidney and jejunum) and CNS brain (cerebellum, hippocampus, striatum and cortex) tissues were harvested and snap frozen in liquid nitrogen, with special care taken to collect tissues of similar size and from the same location. All samples were stored at -80° C. until RNA extraction was conducted. For RNA preparation, frozen tissues were placed in 2 mL RNAse-free 96-well blocks with 1.5 mL QIAzol Lysis Reagent (QIAgen) and a 3.2 mm stainless steel bead (BioSpec Products, Bartlesville, Okla.). Tissues were disrupted for four cycles of 45 seconds in a Mini-Beadbeater (Biospec Products). RNA was extracted in chloroform and the aqueous phase was mixed with an equal volume of 70% ethanol. Extracted RNA was applied to RNeasy 96 plates and purified by the spin method according to the manufacturer's protocol (RNeasy 96 Universal Tissue Protocol, QIAgen, Hilden Germany). […] Two micrograms of biotin labeled […] probe were hybridized to Affymetrix GeneChip Affymetrix HT_MG-430_PM plate arrays with modified conditions as described in […] et al. Washing and staining of the hybridized arrays were completed as described in the GeneChip Expression analysis technical manual for HT plate arrays using the Genechip® Array Station (Affymetrix, Santa Clara, Calif.) with modifications as described in […] et al. The processed GeneChip® plate arrays were scanned using GeneTitan scanner (Affymetrix, Santa Clara, Calif.). Affymetrix scans were subject to quality control (QC) measures. These tests included a visual inspection of the distribution of raw signal intensities and an assessment of RNA degradation, relative log expression (RLE), and normalized unsealed standard error (NUSE). All sample scans that passed these QC metrics were included in the analysis. All CEL files were subjected to GC-content-based Robust Multi-array Average (GCRMA) normalization (version 2.20.0) (Irizarry R A, et al. Nucleic Acids Res 2003; 31:e15; Li C, et al. […] Stat Appl Genet Mol Biol 2004; 3:Article3). […] Springer Science+Business Media 2005). Changes in gene expression were studied by applying a linear modeling approach to fit gene expression levels according to the defined groups of samples (e.g. DMF-, MMF-, and Vehicle-treated animals) and Bayesian posterior error analysis as implemented by Smyth (Smyth G K. Stat Appl Genet Mol Biol 2004; 3:Article3). The comparisons considered included: DMF-vs-MMF, DMF-vs-Vehicle, and MMF-vs-Vehicle. […] Very few DEGs are observed in blood and tissues derived from the central nervous system (brain, cerebellum, cortex, striatum, and spinal cord).

In the case of `COC(=O)/C=C/C(=O)OC` [DMF, dimethyl fumarate], the FC (2310079F09Rik 1433201_PM_at) is reported as 2.00, the FC (8430408G22Rik 1433836_PM_a_at) is reported as 1.77 and the “FC, Depp (1433836_PM_a_at)” value (DMF-vs-MMF) is reported as 1.78. For the same compound, the “FC, Depp (1433836_PM_a_at)” value (DMF-vs-Vehicle) was 1.77, the FC (Pvrl3 1457257_PM_x_at) was −1.69 and the “Number of differentially expressed genes identified: Brain Hemi” value (100 mpk DMF-vs-90 mpk MMF) was 8. For the same compound, the “Number of differentially expressed genes identified: Brain Hemi” value (100 mpk DMF-vs-Vehicle) was 3 and the “DEPP gene induction (mRNA)” value (brain, multi-dosing regimen, naïve mice) was “robustly induced”.
